Tests used:
physchem = experiment: physchem
Method: A weighed sample was diluted with dioxane to produce a solution which was 10μg PGF2α /μl of solution. This solution was used to calibrate the response of the differential refractometer of a Waters Assoc. Model 100 high pressure liquid chromatograph (h.p.l.c.). The calibration appears in FIG. 1. FIG. 1, the PGF2α peak height conditions are as follows: column 4 feet ×0.125 inches o.d., column of Corasil -II. Solvent 0.2% HOAc/EtOAc wherein the former is acetic acid and the latter is ethyl acetate. Flow 0.9ml/min. Reaction times: dioxane front appears at […]. PGF2α at 14 min. from injection corresponding to column void volume after void volume displacement. The numbers on the x-axis are μg injected and the numbers along the y-axis indicate detector response in inches at peak heights.
Weighed samples, 0.5-1.0 mg. ± 0.03 mg, of PGF2α and crystalline racemic PGF2α were placed in 1 dram vials. These vials were randomly divided between storage at -20° C under argon and storage at 41 ± 2°, open to the air, in a sand bath. At stipulated times samples were removed from both types of storage, diluted to 10μg PGF2α /μl, and assayed by h.p.l.c. […] Individual assays of 41° C stored samples are collected in FIG. 2. […] The open symbols are for racemic PGF2α and the closed symbols are for nat. PGF2α. The different symbols are used to indicate different samples. Replicate analysis appear as multiple used of the same symbols at any one time. […] The numbers along the x-axis are days at 41 ± 2° C and along the y-axis are percents.
Since, prostaglandins, including the dienoics, are known to be unstable, as they undergo autoxidation on exposure to air. Methods of Biochemical Analysis, Vol. 17, pages 325 to 371, 1969, published by Interscience Publishers, New York.
FIGS. 3, 3a and 3b show the traces from rapid analysis, (at 1 ml/min.). […] In FIGS. 4, 4a and 4b, all injections represent 100 μg of PGF2α initial samples.

[1] = Storage at -20 °C under argon, h.p.l.c. assay; assay type: physicochemical; settings: samples taken at stipulated times
Method: Natural 9α,11α,15(S)-trihydroxy-5-cis,13-trans-prostadienoic acid, natural PGF2α, prepared from total synthesis was a soft, waxy semi-crystalline compound melting in the range of 25°-32°. […] The calibration appears in FIG. 1. FIG. 1, the PGF2α peak height conditions are as follows: column 4 feet ×0.125 inches o.d., column of Corasil -II. […] Flow 0.9ml/min. Reaction times: dioxane front appears at 30 min.
Weighed samples, 0.5-1.0 mg. ± 0.03 mg, of PGF2α and crystalline racemic PGF2α were placed in 1 dram vials. These vials were randomly divided between storage at -20° C under argon and storage at 41 ± 2°, open to the air, in a sand bath. […] In FIG. 2, the loss of PGF2α on storage open to air at 41 ± 2° C is set forth. […] PGF2α. The different symbols are used to indicate different samples. […] The numbers along the x-axis are days at 41 ± 2° C and along the y-axis are percents. The crystalline racemate assayed 103 ± 3% based on the natural compound.

[2] = Storage at 25 °C with constant exposure to the air; assay type: physicochemical
Method: The figures also show the separation of PGF2α and its 15-epimer. […] In FIGS. 4, 4a and 4b, all injections represent 100 μg of PGF2α initial samples.

SMILES: CCCCC[C@H](O)/C=C/[C@@H]1[C@@H](C/C=C\CCCC(=O)O)[C@@H](O)C[C@H]1O [PGF2α, Natural 9α,11α,15(S)-trihydroxy-5-cis,13-trans-prostadienoic acid, reference compound]
- identity of degradation products versus 15-epi-PGF2α (physchem): Neither of the degradation products seen in the PGF2α sample stored 9 days at 41 °C corresponds to 15-epi-PGF2α
- assay by h.p.l.c. against fresh standards after storage [1]: within experimental error of fresh standards (±6%)

SMILES: CCCCC[C@H](O)/C=C/[C@@H]1[C@@H](C/C=C\CCCC(=O)O)[C@@H](O)C[C@H]1O [oily PGF2α, reference compound]
- course of degradation by oxidation (physchem): degrades by oxidation rapidly at first suggestive of a surface reaction, and then more slowly
- measured half life of degradation by oxidation (physchem): 17 days

SMILES: CCCCC[C@H](O)/C=C/[C@@H]1[C@@H](C/C=C\CCCC(=O)O)[C@@H](O)C[C@H]1O (relative stereo) [Polymorph II, crystalline racemic 9α,11α,15(S)-trihydroxy-5-cis,13-trans-prostadienoic acid]
- long term storage stability (overall finding) (physchem): superior long term storage stability
- change after storage (physchem; after 14 days, open to air at 41 ± 2 °C): unchanged after 14 days
- assay of crystalline racemate based on the natural compound (physchem; h.p.l.c., differential refractometer, based on natural PGF2α): 103 ± 3%
- degraded (physchem; storage open to air): 3%
- assay by h.p.l.c. against fresh standards after storage [1]: within experimental error of fresh standards (±6%)
- crystalline loss on storage ([2]; 25 °C, constant exposure to the air, after more than one year): without any evidence of crystalline loss after more than one year

SMILES: CCCCC[C@H](O)/C=C/[C@@H]1[C@@H](C/C=C\CCCC(=O)O)[C@@H](O)C[C@H]1O (relative stereo) [Polymorph I, racemic 9α,11α,15(S)-trihydroxy-5-cis,13-trans-prostadienoic acid]
- extent of oxidation ([2]; in 17 days, stated for comparison ("would be")): over half oxidized in 17 days

From patent US3940438A, “Crystalline racemic 9α,11α,15(S)-trihydroxy-5-cis,13-trans-prostadienoic acid” (priority 1973, dated 1976)
